Results published in US20120195986A1, “PREVENTING OR TREATING PERIODONTAL DISEASES BY HERBAL EXTRACT” (priority 2009, published 2012).

System: male ICR mice
Test: In vivo anti-inflammatory activity (croton oil-induced ear inflammation, ear thickness)
Set-up: species or system mouse
Conditions: 20 mg/kg orally (positive control)
Method: In order to evaluate in vivo anti-inflammatory activity of the combined extract prepared in Preparation Examples 4 to 7 showing improved osteoblast proliferation and anti-inflammatory activity in the above Experimental Examples 1 and 2 and single extract in Examples 1.1 and 1.2, Hee et. al.'s method was used for the evaluation (Kor J. Pharmacogn. 25(4), 363˜367, 1994, Arch. Pharm. Res. 16(1), 18˜24, 1993.), and the result is shown in Table 2. In Table 2, 20 mg/kg was administered for positive control (Indomethacin, Sigma) and 200 mg/kg was administered for the test groups orally. Dose dependent anti-inflammatory activity was evaluated for the Example 5 with the highest activity, and the result is shown in Table 3. The thickness of ear was measured by using a thickness gauge (model H, Peacock, Japan) for male ICR mice (6 weeks, Samtaco Biokorea) before treating with the formulation. The control and test drug was administered orally, and the inflammation was induced 1 hour after the administration by smearing 10 uL of inflammation inducing material (2.5% croton oil, sigma) dissolved in acetone on the inner and outer ear after immobilizing the mice. In 5 hours, the mice were sacrificed by cervical dislocation and the thickness of the right ear was measured.

COc1ccc2c(c1)c(CC(=O)O)c(C)n2C(=O)c1ccc(Cl)cc1 [Indomethacin]
Anti-inflammatory activity (%): 50%
